# Data reported in US11311506B2, “Controlling biofilms with cyclopropanated fatty acids” (THE UNIVERSITY OF MEMPHIS RESEARCH FOUNDATION, priority 2018, dated 2022).
# Tests used:
# [1] = system: Staphylococcus aureus biofilm; assay: Biofilm dispersion measurements (Staphylococcus aureus), Luciferase assay for ATP production; type: cell-based; settings: 500 μg/mL; preformed 7-day S. aureus biofilm; FIG. 1
# Protocol: Biofilm was formed using Staphylococcus aureus in a 96-well plate format. Each well of the plate was seeded with 150 μL of bacterial culture and incubated for 24 hours to allow for biofilm growth. The medium in each well was changed every 24 hours for 5 days and every 12 hours for two additional days. On day 7, 135 μL of Tryptic Soy Broth (TSB) and 15 μL of C2DA, T2DA, or 2-CP were added to yield final concentrations of each test compound ranging from 0 to 1000 μg/mL. The plate was then incubated for one hour and the turbidity of each solution was determined at 540 nm. Bacterial growths were then aspirated from all wells and the plates were washed several times with water.
# (§1) The relative percentage of attached cells as compared to non-treated controls was assessed using a Luciferase assay for ATP production.
# [2] = system: Staphylococcus aureus biofilm; assay: Biofilm eradication with antibiotics, MBEC Biofilm Inoculator plate, turbidity at 540 nm (Example 3); type: cell-based; settings: 24 h
# Protocol: Overnight cultures of Staphylococcus aureus were prepared by inoculating 2 mL of TSB followed by incubation overnight at 37° C. The following day, 1 mL of this stock was diluted in 10 mL of TSB. A total of 150 μL of the diluted stock was seeded into each well of a 96-well MBECTM Biofilm Inoculator plate, followed by incubation overnight to allow biofilm growth. All media and planktonic bacteria were then aspirated from each well thus allowing the biofilm to remain both on the bottom of each well and on the pegs on the top of the plate. […] The plates were incubated for 24 hours at 37° C. Following incubation, the pegs were removed and added to new plates containing 150 μL of sterile TSB in each well. Plates and pegs were then sonicated for 5 minutes to remove any viable bacteria attached to the pegs, followed by incubation for 24 hours. Turbidity was determined via absorbance at 540 nm to access bacterial growth in the presence of fixed concentration of antibiotics and varying concentrations of […] and 2-CP. In this assay, the live bacteria that remained attached to the pegs grew overnight and increased turbidity.
# [3] = system: Mouse fibroblast cells (NIH3T3); assay: Cytocompatibility, CellTiter Glow cell viability; type: cell-based
# Protocol: Mouse fibroblast cells (NIH3T3) were seeded (1×10^4 cells/cm^2) in 24-well plates in Dulbecco's Modified Eagle's Medium (DMEM) supplemented with 10% fetal bovine serum and 100 μg/mL Normocin for 24 hours at 37° C. and 5% CO2. Concentrations of C2DA, T2DA, and 2-CP ranging from 0 to 1000 μg/mL were added to various wells. The plate was incubated for 24 hours and cell viability was measured using CellTiter Glow.
# [4] = system: Pseudomonas aeruginosa (ATCC 27317) biofilm; assay: Biofilm dispersion measurements (Pseudomonas aeruginosa), Luciferase assay for ATP production; type: cell-based; settings: 125 or 250 μg/mL, 24 h; FIG. 7
# Protocol: Biofilm was formed using Pseudomonas aeruginosa (ATCC 27317) in a 96-well plate format. Each well of the plate was seeded with 150 μL of bacterial culture and incubated for 24 hours. […] The plate was then incubated for 24 hours and the medium was aspirated and the plate washed several times.
# as §1
# [5] = system: S. aureus (UAMS-1); assay: Synergy checkerboard assay, biofilm inhibition (S. aureus); type: cell-based; settings: for MIC for antibiotic (combined): combined with 2-CP
# Protocol: (§2) Synergy assays were performed to determine the effects of 2-CP when used in combination with various antimicrobials against gram positive S. aureus and gram negative P. aeruginosa. […] Final antibiotic concentrations varied based on their respective minimum inhibitory concentration for each organism and are given in Table 1. […] Inhibition was defined as a lack of visible growth after a 24 hr incubation period. The fractional inhibitory concentration index (FICI) was used to determine synergistic, additive, or antagonistic responses between the three antibiotics and 2-CP.
# [6] = system: P. aeruginosa (PA-ATCC 27317); assay: Synergy checkerboard assay, biofilm inhibition (P. aeruginosa); type: cell-based; settings: for FICI / Interpretation: antibiotic combined with 2-CP; for MIC for antibiotic (combined): combined with 2-CP
# Protocol: as §2
# [7] = system: Pseudomonas aeruginosa (ATCC 27317) biofilm; assay: Biofilm eradication with antibiotics, MBEC plate (Example 8, P. aeruginosa); type: cell-based; settings: for FICI / Interpretation: P. aeruginosa eradication, antibiotic combined with 2-CP; for FICI: 4000 μg/mL used for 2-CP alone; for MEC for antibiotic (combined): combined with 2-CP
# Protocol: (§3) Staphylococcus aureus (UAMS1) was grown overnight in TSB by incubation at 37° C. Pseudomonas aeruginosa (ATCC 27317) was grown overnight in a similar manner. S. aureus was diluted 1:10 in TSB and P. aeruginosa was diluted 1:50. Bacterial dilutions were added at a volume of 150 μL into each well of a 96-well MBEC′ Biofilm Inoculator plate, followed by overnight incubation to form the biofilm. The next day the medium from each well was carefully aspirated allowing the biofilm to remain both on the pegs of the top plate and the bottom of the wells. […] These plates were incubated at 37° C. for 24 hours. The next day the peg plates (top plate) were removed and added to new plates containing 150 μL of sterile TSB in each well. Plates were sonicated for 5 minutes to remove the viable bacteria attached to the peg surface and later incubated for 24 hours. Turbidity was measured by reading absorbance at 540 nm for bacterial growth in the presence of fixed concentrations of the antibiotics with varying concentrations of 2-CP and C2DA.
# [8] = system: Staphylococcus aureus (UAMS1) biofilm; assay: Biofilm eradication with antibiotics, MBEC plate (Example 8, S. aureus); type: cell-based
# Protocol: as §3
# [9] = system: bacterial growth; settings: background statement; cited from earlier work
# [10] = system: biofilm formation; settings: background statement; cited from earlier work
structure (smiles),measurement,setting,value
"CCCCCCCC1CC1C(=O)O (stereo not drawn) [2-CP, cis-2-heptylcyclopropanyl-1-carboxylic acid]",ability to disperse biofilm (percentage of dispersed cells),[1],"increased ability to disperse biofilm as compared to its unsaturated fatty acid analog, C2DA"
same,turbidity (absorbance at 540 nm) of bacteria surviving on pegs,"[2]; increasing concentration of 2-CP (0-500 μg/mL) with fixed […] tobramycin, FIG. 2",significantly lower
same,biofilm eradication in combination with tetracycline,"[2]; with tetracycline at […], fatty acid 0-500 μg/mL, FIG. 3",eradicated the biofilm at lower concentrations than C2DA
same,cytocompatibility (percentage of viable cells vs PBS control),"[3]; NIH3T3, 0 to 1000 μg/mL, 24 h, FIG. 4",cytocompatibility equal to C2DA
same,concentration exhibiting significant cytotoxicity toward mammalian cells,"[3]; NIH3T3, 24 h",1000 µg/mL
same,ability to disperse biofilm (relative percentage of attached cells),[4],increased ability to disperse biofilm as compared to T2DA and controls
same,concentration inhibiting growth,[5]; 2-CP alone,4 mg/mL
same,MIC,"[5]; Staphylococcus aureus, 24 hr, read-out: MIC for 2-CP (alone)",4000 µg/mL
same,MIC for 2-CP (combined),[5]; combined with Levofloxacin,500 µg/mL
same,MIC for 2-CP (combined),[5]; combined with Tetracycline,62.5 µg/mL
same,MIC for 2-CP (combined),[5]; combined with Tobramycin,31 µg/mL
same,concentration inhibiting growth,[6]; 2-CP alone,4 mg/mL
same,MIC,"[6]; Pseudomonas aeruginosa, ATCC27317, 24 hr, read-out: MIC for 2-CP (alone)",4000 µg/mL
same,MIC for 2-CP (combined),[6]; combined with Levofloxacin,1000 µg/mL
same,MIC for 2-CP (combined),[6]; combined with Tetracycline,1000 µg/mL
same,MIC for 2-CP (combined),[6]; combined with Tobramycin,31 µg/mL
same,MEC for 2-CP (alone),[7]; P. aeruginosa biofilm eradication,>4000
same,biofilm eradication by the substance alone,"[7]; P. aeruginosa, alone",did not eradicate biofilm at any concentration tested
same,MEC for 2-CP (combined),"[7]; P. aeruginosa, combined with Levofloxacin",250
same,MEC for 2-CP (combined),"[7]; P. aeruginosa, combined with Tobramycin",250
same,MEC for 2-CP (alone),[8]; S. aureus biofilm eradication,>4000
same,biofilm eradication by the substance alone,"[8]; S. aureus, alone",did not eradicate biofilm at any concentration tested
same,MEC for 2-CP (combined),"[8]; S. aureus, combined with Tetracycline",125
same,MEC for 2-CP (combined),"[8]; S. aureus, combined with Tobramycin",31.25
"CCCCCCC/C=C\C(=O)O [C2DA, cis-2-decenoic acid]",concentration that may inhibit bacterial growth,[9],500 µg/mL
same,concentration capable of inhibiting biofilm formation,[10],125 µg/mL
C[C@H]1COc2c(N3CCN(C)CC3)c(F)cc3c(=O)c(C(=O)O)cn1c23 [Levofloxacin],MIC for antibiotic (alone),[5],1 µg/mL
same,FICI,[5]; antibiotic combined with 2-CP,0.4
same,MIC for antibiotic (combined),[5],0.25 µg/mL
same,MIC for antibiotic (alone),[6],1 µg/mL
same,FICI,[6],0.8
same,MIC for antibiotic (combined),[6],0.5 µg/mL
same,MEC for antibiotic (alone),[7]; P. aeruginosa,0.3 µg/mL
same,FICI,[7],0.33
same,MEC for antibiotic (combined),[7]; P. aeruginosa,0.08 µg/mL
CN(C)[C@@H]1C(O)=C(C(N)=O)C(=O)[C@@]2(O)C(O)=C3C(=O)c4c(O)cccc4[C@@](C)(O)[C@H]3C[C@@H]12 [Tetracycline],MIC for antibiotic (alone),[5],1 µg/mL
same,MIC for antibiotic (combined),[5],0.5 µg/mL
same,MIC for antibiotic (alone),[6],32 µg/mL
same,FICI,[6],0.8
same,MIC for antibiotic (combined),[6],16 µg/mL
NC[C@H]1O[C@H](O[C@H]2[C@H](O)[C@@H](O[C@H]3O[C@H](CO)[C@@H](O)[C@H](N)[C@H]3O)[C@H](N)C[C@@H]2N)[C@H](N)C[C@@H]1O [Tobramycin],MIC for antibiotic (alone),[5],4 µg/mL
same,FICI,[5]; antibiotic combined with 2-CP,0.5
same,Interpretation,[5]; antibiotic combined with 2-CP,synergistic
same,MIC for antibiotic (combined),[5],2 µg/mL
same,MIC for antibiotic (alone),[6],0.5 µg/mL
same,FICI,[6],0.5
same,Interpretation,[6],Syner-
same,Interpretation,[6]; listed as tobramycin,synergistic
same,MIC for antibiotic (combined),[6],0.25 µg/mL
same,MEC for antibiotic (alone),[7]; P. aeruginosa,0.5 µg/mL
same,Interpretation,[7],Additive
same,FICI,[7],0.5625
same,Interpretation,[7]; listed as tobramycin,additive
same,MEC for antibiotic (combined),[7]; P. aeruginosa,0.25 µg/mL
same,MEC for antibiotic (alone),[8]; S. aureus,2.5 µg/mL
same,Interpretation,"[8]; S. aureus eradication, antibiotic combined with 2-CP",Additive
same,FICI,"[8]; S. aureus eradication, antibiotic combined with 2-CP, 4000 μg/mL used for 2-CP alone",0.51
same,Interpretation,"[8]; S. aureus eradication, antibiotic combined with 2-CP, listed as tobramycin",additive
same,MEC for antibiotic (combined),"[8]; S. aureus, combined with 2-CP",1.25 µg/mL
